# Source: patent US7652020B2, “Compounds for the treatment of inflammatory disorders” (Schering Corporation, priority 2004, dated 2010)
# Biological target: T1, purified catalytic domain of recombinant human TACE (rhTACEc) (Homo sapiens, UniProt P78536, N452Q/S266A)
# T1 construct: Residue 215 to 477 with two mutation (S266A and N452Q) and a 6×His tail; 6xHis (C); made in house; host or cells: baculovirus/Hi5 insect cells
# Assay: TACE kinetic assay: cleavage of internally quenched peptide substrate SPDL-3, fluorescence
# Type: biochemical
# Settings: TACE inhibitory activity, class symbols; read-out: Ki
# Procedure: TACE activity is determined by a kinetic assay measuring the rate of increase in fluorescent intensity generated by TACE catalyzed cleavage of an internally quenched peptide substrate (SPDL-3). […] It is purified from the baculovirus/Hi5 cells expression system using affinity chromatography. […] MCA is (7-Methoxycoumarin-4-yl)acetyl. Dpa is N-3-(2,4-Dinitrophenyl)-L-2,3-diaminopropionyl.
# A 50 μl assay mixture contains 20 mM HEPES, pH 7.3, 5 mM CaCl2, 100 μM ZnCl2, 2% DMSO, 0.04% Methylcellulose, 30 μM SPDL-3, 70 pM rhTACEc and a test compound. RhTACEc is pre-incubated with the testing compound for 90 min. at 25° C. Reaction is started by addition of the substrate. […] Rate of enzymatic reaction is shown as Units per second. Effect of a test compound is shown as % of TACE activity in the absence of the compound.
# T1 sequence (P78536 215-477 S266A/N452Q): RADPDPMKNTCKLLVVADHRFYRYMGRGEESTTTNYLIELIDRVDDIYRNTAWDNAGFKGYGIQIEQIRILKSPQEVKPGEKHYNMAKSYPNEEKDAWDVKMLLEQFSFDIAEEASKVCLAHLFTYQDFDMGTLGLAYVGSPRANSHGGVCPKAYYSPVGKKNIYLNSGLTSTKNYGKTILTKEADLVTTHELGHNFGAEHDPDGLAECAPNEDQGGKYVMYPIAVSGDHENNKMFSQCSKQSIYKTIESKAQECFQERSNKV
row,Ki,Compound
1,< 20 nM,CCNc1nc([C@H]2c3ccccc3CCN2C(=O)[C@H](O)[C@@H](O)C(=O)N[C@H](C)c2ccc(-n3cccn3)cc2)cs1 [Compound 2587]
2,< 20 nM,C[C@@H](NC(=O)[C@H](O)[C@@H](O)C(=O)N1Cc2cncnc2C1)c1ccc(-n2cccn2)cc1 [Compound 2044]
3,> 1000 nM,CCOc1c(F)cccc1N1CCC(CNC(=O)[C@H](O)[C@@H](O)C(=O)N2CCCC2)CC1 [Compound 2141]
4,20 to 100 nM,C[C@@H](NC(=O)[C@H](O)[C@@H](O)C(=O)N1CCCCC1c1nccs1)c1ccc(-n2cccn2)cc1 (some centres unmarked) [Compound 2416]
5,< 20 nM,O=C(NCC1CCN(c2ccccc2OC(F)(F)F)CC1)[C@H](O)[C@@H](O)C(=O)N1Cc2ccncc2C1 [Compound 2040]
6,100 to 1000 nM,C[C@@H](NC(=O)[C@H](O)[C@@H](O)C(=O)N1CCCC(C)(C)C1)c1ccc(-n2cccn2)cc1 [Compound 2412]
7,< 20 nM,C[C@@H](NC(=O)[C@H](O)[C@@H](O)C(=O)N1CCc2cc(Cl)ccc2C1c1cc[nH]n1)c1ccc(-n2cccn2)cc1 (some centres unmarked) [Compound 2596]
8,< 20 nM,CC#CCOc1cc([C@@H](C)NC(=O)[C@H](O)[C@@H](O)C(=O)N2CCC[C@@H]2c2cccc(Cl)c2)ccc1-n1cccn1 [Compound 2571]
9,< 20 nM,CCOc1cc(F)ccc1-c1ccc(CNC(=O)[C@](C)(O)[C@@H](O)C(=O)N2Cc3cccnc3C2)cc1 [Compound 2033]
10,> 1000 nM,N#Cc1cc(F)ccc1N1CCC(CNC(=O)[C@H](O)[C@@H](O)C(=O)N2C3CCC2CC3)CC1 [Compound 2094]
11,100 to 1000 nM,C[C@@H](NC(=O)[C@H](O)[C@@H](O)C(=O)N1CCN2CCC[C@H]2C1)c1ccc(-n2cccn2)cc1 [Compound 2420]
12,< 20 nM,CC(C)Nc1nc([C@H]2c3ccccc3CCN2C(=O)[C@H](O)[C@@H](O)C(=O)N[C@H](C)c2ccc(-n3cccn3)cc2)cs1 [Compound 2588]
13,< 20 nM,CC(=O)Nc1nc([C@H]2CCCN2C(=O)[C@H](O)[C@@H](O)C(=O)N[C@H](C)c2ccc(-n3cccn3)cc2)cs1 [Compound 2579]
14,< 20 nM,CNc1nc([C@H]2C=CCN2C(=O)[C@H](O)[C@@H](O)C(=O)N[C@H](C)c2ccc(-n3cccn3)cc2)cs1 [Compound 2250]
15,100 to 1000 nM,C[C@@H](NC(=O)[C@H](O)[C@@H](O)C(=O)N1CCC(=O)N1c1cccc(Cl)c1)c1ccc(-n2cccn2)cc1 [Compound 2494]
16,< 20 nM,O=C(NC[C@H]1CC[C@H](n2c(C(F)(F)F)nc3ccccc32)CC1)[C@H](O)[C@@H](O)C(=O)N1CCC[C@@H]1c1ccccc1 [Compound 2351]
17,20 to 100 nM,C[C@](O)(C(=O)NCC1CCN(c2ccc(F)cc2C#N)CC1)[C@@H](O)C(=O)N1Cc2cccnc2C1 [Compound 2034]
18,< 20 nM,C[C@@H](NC(=O)[C@H](O)[C@@H](O)C(=O)N1CCC[C@@H]1c1cc[nH]n1)c1ccc(-n2cccn2)cc1 [Compound 2247]
19,20 to 100 nM,C[C@@H]1CN(c2ccc(F)cc2C#N)CCC1CNC(=O)[C@H](O)[C@@H](O)C(=O)N1CCCC1 (some centres unmarked) [Compound 2150]
20,< 20 nM,C[C@@H](NC(=O)[C@](C)(O)[C@@H](O)C(=O)N1Cc2cccnc2C1)c1ccc(-n2cccn2)cc1 [Compound 2031]
21,< 20 nM,Cc1nc2c(s1)CN(C(=O)[C@H](O)[C@@](C)(O)C(=O)N[C@H](C)c1ccc(-n3cccn3)cc1)C2 [Compound 2057]

# Second part, the compound before the results:
row,Compound,Ki
1,N#Cc1cc(F)ccc1N1CCC(CNC(=O)[C@H](O)[C@@H](O)C(=O)N2Cc3cccnc3C2)CC1 [Compound 2003],20 to 100 nM
2,CNc1nc([C@H]2CCCN2C(=O)[C@H](O)[C@@H](O)C(=O)N[C@H](C)c2ccc(-n3cccn3)cc2)cs1 [Compound 2252],< 20 nM
3,C[C@@H](NC(=O)[C@H](O)[C@@H](O)C(=O)N1CCCN1c1cccc(Cl)c1)c1ccc(-n2cccn2)cc1 [Compound 2495],100 to 1000 nM
4,C[C@@H](NC(=O)[C@H](O)[C@@H](O)C(=O)N1CCCN1c1ccccc1)c1ccc(-n2cccn2)cc1 [Compound 2496],100 to 1000 nM
5,C[C@@H](NC(=O)[C@H](O)[C@@H](O)C(=O)N1CC[C@H](O)[C@H]1c1cccc(Cl)c1)c1ccc(-n2cccn2)cc1 [Compound 2266],< 20 nM
6,CNc1nc([C@H]2CCCN2C(=O)[C@H](O)[C@@H](O)C(=O)N[C@H](C)c2ccc(-n3cccn3)cc2)c(C#N)s1 [Compound 2269],< 20 nM
7,CNc1nc([C@H]2CCCN2C(=O)[C@H](O)[C@@H](O)C(=O)N[C@H](C)c2ccc(-n3cccn3)cc2)c(C)s1 [Compound 2268],< 20 nM
8,C[C@@H](NC(=O)[C@H](O)[C@@H](O)C(=O)N1C2CCC1c1cc(F)c(F)cc12)c1ccc(-n2cccn2)cc1 [Compound 2096],100 to 1000 nM
9,N#Cc1cc(F)ccc1N1CCC(CNC(=O)[C@H](O)[C@@H](N)C(=O)N2CCCC2)CC1 [Compound 2456],> 1000 nM
10,CC(=O)N(C)c1nc([C@H]2CCCN2C(=O)[C@H](O)[C@@H](O)C(=O)N[C@H](C)c2ccc(-n3cccn3)cc2)cs1 [Compound 2261],< 20 nM
11,C[C@@H](NC(=O)[C@H](O)[C@@H](O)C(=O)N1CCC[C@@H]1c1ncccn1)c1ccc(-n2cccn2)cc1 [Compound 2242],< 20 nM
12,CCOc1cc(F)ccc1-c1ccc(CNC(=O)[C@H](O)[C@@H](O)C(=O)N2CCCC2)nc1 [Compound 2349],< 20 nM
13,COc1cccc([C@@H](C)NC(=O)[C@H](O)[C@@H](O)C(=O)N2Cc3cccnc3C2)c1 [Compound 2306],> 1000 nM
14,C[C@@H](NC(=O)[C@H](O)[C@@H](O)C(=O)N1CCc2cc(Cl)c(Cl)cc2C1c1ccccc1)c1ccc(-n2cccn2)cc1 (some centres unmarked) [Compound 2443],< 20 nM
15,CCOc1cc(F)ccc1-c1ccc(CNC(=O)[C@H](O)[C@@H](O)C(=O)N2Cc3cccnc3C2)cc1 [Compound 2036],< 20 nM
16,C[C@@H](NC(=O)[C@H](O)[C@@H](O)C(=O)N1CCOCC1)c1ccc(-n2cccn2)cc1 [Compound 2422],20 to 100 nM
17,O=C(NCC1CCN(c2ccc(F)cc2Br)CC1)[C@H](O)[C@@H](O)C(=O)N1Cc2ccccc2C1 [Compound 2139],< 20 nM
18,CC#CCOc1cc([C@@H](C)NC(=O)[C@](C)(O)[C@@H](O)C(=O)N2Cc3cccnc3C2)ccc1-n1cccn1 [Compound 2360],< 20 nM
19,Cn1c(-c2ccccc2)cnc1[C@H](O)[C@@H](O)C(=O)NCC1CCN(c2ccc(F)cc2C#N)CC1 [Compound 2402],> 1000 nM
20,C[C@@H](NC(=O)[C@H](O)[C@@H](O)C(=O)N1CCC[C@@H]1c1csc(N(C)C)n1)c1ccc(-n2cccn2)cc1 [Compound 2260],20 to 100 nM
21,C[C@H]1CN(c2ccccc2C#N)CCC1CNC(=O)[C@H](O)[C@@H](O)C(=O)N1Cc2ccccc2C1 (some centres unmarked) [Compound 2146],100 to 1000 nM
22,CCNc1nc([C@H]2C[C@@H](C)CN2C(=O)[C@H](O)[C@@H](O)C(=O)N[C@H](C)c2ccc(-n3cccn3)cc2)cs1 [Compound 2271],< 20 nM
23,Cc1cnc([C@H](O)[C@@H](O)C(=O)NCC2CCN(c3ccc(F)cc3C#N)CC2)n1C [Compound 2400],100 to 1000 nM
24,C[C@@H](NC(=O)[C@H](O)[C@@H](O)C(=O)N1CCc2cc(Cl)ccc2C1c1ccccc1)c1ccc(-n2cccn2)cc1 (some centres unmarked) [Compound 2444],< 20 nM
25,C[C@@H](NC(=O)[C@H](O)[C@@H](O)C(=O)N1CCCCC1c1ccc(Cl)cc1)c1ccc(-n2cccn2)cc1 (some centres unmarked) [Compound 2418],20 to 100 nM
26,C[C@@H]1CN(c2ccccc2C#N)CCC1CNC(=O)[C@H](O)[C@@H](O)C(=O)N1CCC[C@@H]1c1ccccc1 (some centres unmarked) [Compound 2144],< 20 nM
27,C[C@@H](NC(=O)[C@H](O)[C@@H](O)C(=O)N1CCCC1c1nccs1)c1ccc(-n2cccn2)cc1 (some centres unmarked) [Compound 2600],< 20 nM
28,C[C@@H](NC(=O)[C@H](O)[C@@H](O)C(=O)N1C[C@H](O)C[C@H]1c1cccc(Cl)c1)c1ccc(-n2cccn2)cc1 [Compound 2265],< 20 nM
29,C[C@@H](NC(=O)[C@H](O)[C@@H](O)C(=O)N1CCCC1(C)c1csc(N)n1)c1ccc(-n2cccn2)cc1 (some centres unmarked) [Compound 2243],< 20 nM

# Same assay, conditions: TACE, representative compounds, numeric values; read-out: Ki
row,Ki,Compound
1,0.49 nM,C[C@@H](NC(=O)[C@H](O)[C@@H](O)C(=O)N1CC=C[C@@H]1c1cccc(Cl)c1)c1ccc(-n2cccn2)cc1 [drawing 1295]
2,2 nM,CNc1nc([C@H]2CCCN2C(=O)[C@H](O)[C@@H](O)C(=O)N[C@H](C)c2ccc(-n3cccn3)cc2)c(C)s1 [drawing 1315]
3,2.7 nM,O=C(NCc1ccn(Cc2ccccc2Cl)n1)[C@H](O)[C@@H](O)C(=O)N1CCC[C@@H]1c1cccc(Cl)c1
4,2.3 nM,C[C@@H](NC(=O)[C@H](O)[C@@H](O)C(=O)N1CCC[C@@H]1c1ccn(-c2ccccc2)n1)c1ccc(-n2cccn2)cc1 [drawing 1318]
5,0.8 nM,C[C@@H](NC(=O)[C@H](O)[C@@H](O)C(=O)N1CCC[C@@H]1c1cccc(Cl)c1)c1ccc(-n2cccn2)cc1 [drawing 1304]
6,0.57 nM,CNc1nc([C@H]2C=CCN2C(=O)[C@H](O)[C@@H](O)C(=O)N[C@H](C)c2ccc(-n3cccn3)cc2)cs1 [drawing 1300]
7,0.54 nM,CC(C)Nc1nc([C@H]2c3ccccc3CN2C(=O)[C@H](O)[C@@H](O)C(=O)N[C@H](C)c2ccc(-n3cccn3)cc2)cs1 [drawing 1298]
8,0.56 nM,CCNc1nnc(C2c3ccccc3CN2C(=O)[C@H](O)[C@@H](O)C(=O)N[C@H](C)c2ccc(-n3cccn3)cc2)o1 (some centres unmarked)
9,3.3 nM,CC(C)Nc1nc([C@@H]2c3ccc(Cl)cc3CCN2C(=O)[C@H](O)[C@@H](O)C(=O)N[C@H](C)c2ccc(-n3cccn3)cc2)cs1 [drawing 1324]
